Experimental data published in ChEMBL document CHEMBL1145481, “Molecular epidemiology of telithromycin-resistant pneumococci in Finland” (2007).

How the values were obtained:
Streptococcus pneumoniae [1] = experiment: Antimicrobial activity against telithromycin-resistant Streptococcus pneumoniae 237 isolate with erm(B) resistance gene from patient ear by disk diffusion test; type: functional
Streptococcus pneumoniae [2] = experiment: Antimicrobial activity against telithromycin-resistant Streptococcus pneumoniae 918 isolate with erm(B) resistance gene from patient eye by disk diffusion test; type: functional
Streptococcus pneumoniae [3] = experiment: Antimicrobial activity against telithromycin-resistant Streptococcus pneumoniae 811 isolate with erm(B) resistance gene from patient blood by disk diffusion test; type: functional
Streptococcus pneumoniae [4] = experiment: Antimicrobial activity against telithromycin-resistant Streptococcus pneumoniae 837 isolate with mutation in erm(B), mef(E), L4 Ser20Asn mutant gene from patient sputum by disk diffusion test; type: functional
Streptococcus pneumoniae [5] = experiment: Antimicrobial activity against telithromycin-resistant Streptococcus pneumoniae 1041 isolate with erm(B) resistance gene from patient blood by disk diffusion test; type: functional
Streptococcus pneumoniae [6] = experiment: Antimicrobial activity against telithromycin-resistant Streptococcus pneumoniae 1022 isolate with erm(B) resistance gene from patient ear by disk diffusion test; type: functional
Streptococcus pneumoniae [7] = experiment: Antimicrobial activity against telithromycin-resistant Streptococcus pneumoniae 859 isolate with erm(B) resistance gene from patient bronchoalveolar lavage by disk diffusion test; type: functional, Lung
Streptococcus pneumoniae [8] = experiment: Antimicrobial activity against telithromycin-resistant Streptococcus pneumoniae 427 isolate with erm(B) resistance gene from patient sinuitis by disk diffusion test; type: functional
Streptococcus pneumoniae [9] = experiment: Antimicrobial activity against telithromycin-resistant Streptococcus pneumoniae 426 isolate with erm(B) resistance gene from patient sinuitis by disk diffusion test; type: functional
Streptococcus pneumoniae [10] = experiment: Antimicrobial activity against telithromycin-resistant Streptococcus pneumoniae 1016 isolate with erm(B) resistance gene from patient blood by disk diffusion test; type: functional
Streptococcus pneumoniae [11] = experiment: Antimicrobial activity against telithromycin-resistant Streptococcus pneumoniae 759 isolate with erm(B) resistance gene from patient ear by disk diffusion test; type: functional
Streptococcus pneumoniae [12] = experiment: Antimicrobial activity against telithromycin-resistant Streptococcus pneumoniae 981 isolate with erm(B) resistance gene from patient blood by disk diffusion test; type: functional
Streptococcus pneumoniae [13] = experiment: Antimicrobial activity against telithromycin-resistant Streptococcus pneumoniae 376 isolate with erm(B) resistance gene from patient ear by disk diffusion test; type: functional
Streptococcus pneumoniae [14] = experiment: Antimicrobial activity against telithromycin-resistant Streptococcus pneumoniae 460 isolate with erm(B) resistance gene from patient ear by disk diffusion test; type: functional
Streptococcus pneumoniae [15] = experiment: Antimicrobial activity against telithromycin-resistant Streptococcus pneumoniae 838 isolate with erm(B) and mef(E) resistance gene from patient ear by disk diffusion test; type: functional
Streptococcus pneumoniae [16] = experiment: Antimicrobial activity against telithromycin-resistant Streptococcus pneumoniae 547 isolate with erm(B) resistance gene from patient sinuitis by disk diffusion test; type: functional
Streptococcus pneumoniae [17] = experiment: Antimicrobial activity against telithromycin-resistant Streptococcus pneumoniae 833 isolate with erm(B) resistance gene from patient sinuitis by disk diffusion test; type: functional
Streptococcus pneumoniae [18] = experiment: Antimicrobial activity against telithromycin-resistant Streptococcus pneumoniae 897 isolate with erm(B) resistance gene from patient bronchoalveolar lavage by disk diffusion test; type: functional, Lung
Streptococcus pneumoniae [19] = experiment: Antimicrobial activity against telithromycin-resistant Streptococcus pneumoniae 415 isolate with erm(B) resistance gene from patient blood by disk diffusion test; type: functional
Streptococcus pneumoniae [20] = experiment: Antimicrobial activity against telithromycin-resistant Streptococcus pneumoniae 683 isolate with erm(B) resistance gene from patient sputum by disk diffusion test; type: functional
Streptococcus pneumoniae [21] = experiment: Antimicrobial activity against telithromycin-resistant Streptococcus pneumoniae 552 isolate with erm(B) resistance gene from patient sinuitis by disk diffusion test; type: functional
Streptococcus pneumoniae [22] = experiment: Antimicrobial activity against telithromycin-resistant Streptococcus pneumoniae 115 isolate with erm(B) resistance gene from patient ear by disk diffusion test; type: functional
Streptococcus pneumoniae [23] = experiment: Antimicrobial activity against telithromycin-resistant Streptococcus pneumoniae 443 isolate with erm(B) resistance gene from patient ear by disk diffusion test; type: functional
Streptococcus pneumoniae [24] = experiment: Antimicrobial activity against telithromycin-resistant Streptococcus pneumoniae 1017 isolate with erm(B) resistance gene from patient ear by disk diffusion test; type: functional
Streptococcus pneumoniae [25] = experiment: Antimicrobial activity against telithromycin-resistant Streptococcus pneumoniae 1051 isolate with erm(B) resistance gene from patient ear by disk diffusion test; type: functional
Streptococcus pneumoniae [26] = experiment: Antimicrobial activity against telithromycin-resistant Streptococcus pneumoniae 326 isolate with erm(B) resistance gene from patient blood by disk diffusion test; type: functional

**Q.** How did the Activity (Streptococcus pneumoniae [1]) turn out when CN(C)[C@@H]1C(O)=C(C(N)=O)C(=O)[C@@]2(O)C(O)=C3C(=O)c4c(O)cccc4[C@@](C)(O)[C@H]3C[C@@H]12 [TETRACYCLINE] was run?
**A.** 32 µg/mL

**Q.** And the Activity (Streptococcus pneumoniae [2])?
**A.** 32 µg/mL

**Q.** What about the Activity (Streptococcus pneumoniae [3]) of the same molecule?
**A.** 16 µg/mL

**Q.** And the Activity (Streptococcus pneumoniae [4])?
**A.** 64 µg/mL

**Q.** What about the Activity (Streptococcus pneumoniae [5]) of the same molecule?
**A.** 32 µg/mL

**Q.** What about the Activity (Streptococcus pneumoniae [6]) of the same molecule?
**A.** 32 µg/mL

**Q.** And the Activity (Streptococcus pneumoniae [7])?
**A.** 32 µg/mL

**Q.** And the Activity (Streptococcus pneumoniae [8])?
**A.** 32 µg/mL

**Q.** And the Activity (Streptococcus pneumoniae [9])?
**A.** 32 µg/mL

**Q.** And the Activity (Streptococcus pneumoniae [10])?
**A.** 32 µg/mL

**Q.** And the Activity (Streptococcus pneumoniae [11])?
**A.** 32 µg/mL

**Q.** And the Activity (Streptococcus pneumoniae [12])?
**A.** 32 µg/mL

**Q.** And the Activity (Streptococcus pneumoniae [13])?
**A.** 0.5 µg/mL

**Q.** And the Activity (Streptococcus pneumoniae [14])?
**A.** 32 µg/mL

**Q.** What about the Activity (Streptococcus pneumoniae [15]) of the same molecule?
**A.** 32 µg/mL

**Q.** What about the Activity (Streptococcus pneumoniae [16]) of the same molecule?
**A.** 32 µg/mL

**Q.** And the Activity (Streptococcus pneumoniae [17])?
**A.** 32 µg/mL

**Q.** What about the Activity (Streptococcus pneumoniae [18]) of the same molecule?
**A.** 64 µg/mL

**Q.** And the Activity (Streptococcus pneumoniae [19])?
**A.** 32 µg/mL

**Q.** And the Activity (Streptococcus pneumoniae [20])?
**A.** 32 µg/mL

**Q.** What about the Activity (Streptococcus pneumoniae [21]) of the same molecule?
**A.** 32 µg/mL

**Q.** And the Activity (Streptococcus pneumoniae [22])?
**A.** 64 µg/mL

**Q.** What about the Activity (Streptococcus pneumoniae [23]) of the same molecule?
**A.** 32 µg/mL

**Q.** What about the Activity (Streptococcus pneumoniae [24]) of the same molecule?
**A.** 32 µg/mL

**Q.** And the Activity (Streptococcus pneumoniae [25])?
**A.** 32 µg/mL

**Q.** And the Activity (Streptococcus pneumoniae [26])?
**A.** 32 µg/mL

**Q.** With CC[C@H]1OC(=O)[C@H](C)[C@@H](O[C@H]2C[C@@](C)(OC)[C@@H](O)[C@H](C)O2)[C@H](C)[C@@H](O[C@@H]2O[C@H](C)C[C@H](N(C)C)[C@H]2O)[C@](C)(O)C[C@@H](C)C(=O)[C@H](C)[C@@H](O)[C@]1(C)O [ERYTHROMYCIN] as the molecule, how does the Activity (Streptococcus pneumoniae [1]) read?
**A.** 129 µg/mL

**Q.** And the Activity (Streptococcus pneumoniae [2])?
**A.** 129 µg/mL

**Q.** And the Activity (Streptococcus pneumoniae [3])?
**A.** 129 µg/mL

**Q.** And the Activity (Streptococcus pneumoniae [4])?
**A.** 129 µg/mL

**Q.** And the Activity (Streptococcus pneumoniae [5])?
**A.** 129 µg/mL

**Q.** And the Activity (Streptococcus pneumoniae [6])?
**A.** 129 µg/mL

**Q.** What about the Activity (Streptococcus pneumoniae [7]) of the same molecule?
**A.** 129 µg/mL

**Q.** What about the Activity (Streptococcus pneumoniae [8]) of the same molecule?
**A.** 129 µg/mL

**Q.** What about the Activity (Streptococcus pneumoniae [9]) of the same molecule?
**A.** 129 µg/mL

**Q.** What about the Activity (Streptococcus pneumoniae [10]) of the same molecule?
**A.** 129 µg/mL

**Q.** And the Activity (Streptococcus pneumoniae [11])?
**A.** 129 µg/mL

**Q.** What about the Activity (Streptococcus pneumoniae [12]) of the same molecule?
**A.** 129 µg/mL

**Q.** What about the Activity (Streptococcus pneumoniae [13]) of the same molecule?
**A.** 129 µg/mL

**Q.** What about the Activity (Streptococcus pneumoniae [14]) of the same molecule?
**A.** 129 µg/mL

**Q.** And the Activity (Streptococcus pneumoniae [15])?
**A.** 129 µg/mL

**Q.** And the Activity (Streptococcus pneumoniae [16])?
**A.** 129 µg/mL

**Q.** What about the Activity (Streptococcus pneumoniae [17]) of the same molecule?
**A.** 129 µg/mL

**Q.** What about the Activity (Streptococcus pneumoniae [18]) of the same molecule?
**A.** 129 µg/mL

**Q.** What about the Activity (Streptococcus pneumoniae [19]) of the same molecule?
**A.** 129 µg/mL

**Q.** And the Activity (Streptococcus pneumoniae [20])?
**A.** 129 µg/mL

**Q.** And the Activity (Streptococcus pneumoniae [21])?
**A.** 129 µg/mL

**Q.** And the Activity (Streptococcus pneumoniae [22])?
**A.** 129 µg/mL

**Q.** What about the Activity (Streptococcus pneumoniae [23]) of the same molecule?
**A.** 129 µg/mL

**Q.** And the Activity (Streptococcus pneumoniae [24])?
**A.** 129 µg/mL

**Q.** And the Activity (Streptococcus pneumoniae [25])?
**A.** 129 µg/mL

**Q.** What about the Activity (Streptococcus pneumoniae [26]) of the same molecule?
**A.** 129 µg/mL
